Test results: the NIST ThermoML archive (doi:10.1016/j.jct.2016.04.008)

Conditions: for mass density: 100 kPa, Buoyancy - hydrostatic balance with magnetic suspension - one sinker

CCCCCCCCCCCC[n+]1ccn(C)c1.F[B-](F)(F)F [1-dodecyl-3-methylimidazolium tetrafluoroborate]
surface tension liquid-gas [mN/m], Liquid
Conditions | Ring tensiometer | Willhelmy plate method
327.2 K | 25.89 | –
333.17 K | – | 25.79
333.2 K | 25.61 | –
338 K | – | 25.54
338.06 K | 25.59 | –
342.73 K | – | 25.4
343.23 K | 25.4 | –
347.11 K | 25.22 | 25.26
353.61 K | – | 25.03
353.66 K | 25.11 | –
359.02 K | – | 24.82
359.84 K | 24.78 | –
363.47 K | – | 24.64
363.69 K | 24.63 | –

Liquid
Conditions | mass density [kg/m3]
328.83 K | 1027.93
333.45 K | 1024.75
337 K | 1022.41
343.4 K | 1018.2
347.32 K | 1015.89
352.58 K | 1012.18
357.71 K | 1009
362.85 K | 1005.22

CCCn1cc[n+](C)c1.F[B-](F)(F)F [1-propyl-3-methylimidazolium tetrafluoroborate]
Metastable liquid
Conditions | mass density [kg/m3]
263.48 K | 1263.82
267.76 K | 1260.36
273.92 K | 1255.4
278.64 K | 1251.98
283.36 K | 1248.34
288.62 K | 1245.07
293.07 K | 1241.48
298.18 K | 1237.91
303.09 K | 1234.13
308.11 K | 1230.24
313.13 K | 1226.49
318 K | 1222.86
322.91 K | 1219.26
328.37 K | 1215.54
333.47 K | 1211.69
337.99 K | 1208.71
342.79 K | 1205.15
348.01 K | 1201.38
353 K | 1198.22
359.33 K | 1194.13
363.9 K | 1190.61

surface tension liquid-gas [mN/m], Metastable liquid
Conditions | Ring tensiometer | Willhelmy plate method
273.75 K | – | 50.71
273.79 K | 51.33 | –
278.5 K | – | 50.51
278.59 K | 51.07 | –
283.29 K | – | 50.25
283.35 K | 50.8 | –
288.51 K | – | 49.99
288.6 K | 50.51 | –
293.05 K | – | 49.65
293.08 K | 50.23 | –
298.18 K | 49.96 | –
298.19 K | – | 49.5
303.09 K | 49.6 | 49.11
308.05 K | – | 48.73
308.08 K | 49.16 | –
313.06 K | – | 48.58
313.09 K | 49.02 | –
318 K | 48.72 | 48.32
322.85 K | – | 47.95
322.87 K | 48.32 | –
328.24 K | – | 47.64
328.31 K | 47.95 | –
333.32 K | – | 47.28
333.5 K | 47.54 | –
338.08 K | – | 47.1
338.14 K | 47.43 | –
342.74 K | – | 46.86
342.81 K | 46.8 | –
348.07 K | 46.79 | –
348.15 K | – | 46.48
353.02 K | 46.07 | –
353.21 K | – | 46.16
358.98 K | 45.94 | –
359.05 K | – | 45.89
362.96 K | – | 45.51
363.8 K | 45.67 | –

CCCCCCCCCn1cc[n+](C)c1.F[B-](F)(F)F [1-nonyl-3-methylimidazolium tetrafluoroborate]
Liquid
Conditions | mass density [kg/m3]
269.37 K | 1108.1
274.7 K | 1104.14
278.49 K | 1101.14
283.7 K | 1097.76
288.38 K | 1094.04
293.34 K | 1090.55
298.3 K | 1087.19
303.16 K | 1084.03
308.11 K | 1080.68
313.07 K | 1077.08
317.8 K | 1073.8
322.89 K | 1070.47
328.78 K | 1067.01
333.51 K | 1063.61
338.65 K | 1060.05
342.35 K | 1057.5
348.22 K | 1053.82
352.72 K | 1050.55
357.94 K | 1047.5
363.54 K | 1043.86

surface tension liquid-gas [mN/m], Liquid
Conditions | Ring tensiometer | Willhelmy plate method
269.49 K | 33.05 | –
274.62 K | 32.75 | –
278.42 K | 32.6 | –
283.61 K | – | 32.09
283.73 K | 32.33 | –
288.37 K | – | 31.88
288.41 K | 32.14 | –
293.36 K | 31.82 | 31.67
298.28 K | 31.59 | –
298.31 K | – | 31.45
303.11 K | 31.38 | –
303.12 K | – | 31.29
308.07 K | 31.2 | –
308.11 K | – | 31.1
313.04 K | 30.9 | –
313.06 K | – | 30.81
317.79 K | 30.65 | –
317.83 K | – | 30.66
322.85 K | 30.43 | –
322.9 K | – | 30.39
328.72 K | 30.17 | –
328.74 K | – | 30.12
333.58 K | 29.92 | 29.92
338.63 K | 29.71 | –
338.67 K | – | 29.67
342.37 K | 29.49 | –
342.48 K | – | 29.52
348.12 K | – | 29.3
348.21 K | 29.22 | –
352.1 K | 29.02 | –
353.08 K | – | 29.07
357.88 K | 28.83 | –
357.99 K | – | 28.86
363.56 K | 28.58 | –
363.61 K | – | 28.61
